# In ChEMBL document CHEMBL3745645, “Synthesis, in vitro antitumor activity, dihydrofolate reductase inhibition, DNA intercalation and structure-activity relationship studies of 1,3,5-triazine analogues” (Bioorg Med Chem Lett, 2016):
# Active and inactive are the calls of the source. The rule behind the calls is not given here.
# Columns and labels:
# [1] = Cytotoxicity against human Caki1 cells at 10 uM after 48 hrs by SRB assay; type: functional; details: CAKI-1, 48 h, read-out: GI
# [2] = Cytotoxicity against human RXF393 cells at 10 uM after 48 hrs by SRB assay; type: functional; details: RXF 393, 48 h, read-out: GI
# SN12C = assay: Cytotoxicity against human SN12C cells at 10 uM after 48 hrs by SRB assay; type: functional; details: read-out: GI
# [3] = Cytotoxicity against human UO31 cells at 10 uM after 48 hrs by SRB assay; type: functional; details: UO-31, 48 h, read-out: GI
# [4] = Cytotoxicity against human Hs 578T cells at 10 uM after 48 hrs by SRB assay; type: functional; details: read-out: GI
# T47D = assay: Cytotoxicity against human T47D cells at 10 uM after 48 hrs by SRB assay; type: functional; details: read-out: GI
# MDA-MB-468 = assay: Cytotoxicity against human MDA-MB-468 cells at 10 uM after 48 hrs by SRB assay; type: functional; details: MDA-MB-468, 48 h, read-out: GI
# K562 = assay: Cytotoxicity against human K562 cells after 48 hrs by SRB assay; type: functional; details: K562, 48 h
# [5] = Cytotoxicity against human RPMI8226 cells after 48 hrs by SRB assay; type: functional; details: RPMI-8226, 48 h, read-out: LC50 (the source's name)
# A549 = assay: Cytotoxicity against human A549 cells after 48 hrs by SRB assay; type: functional; details: A549, 48 h, pooled result: one value given for 8 cell lines, strains, targets or settings
# [6] = Cytotoxicity against human COLO205 cells after 48 hrs by SRB assay; type: functional; details: COLO 205, 48 h, pooled result: one value given for 7 cell lines, strains, targets or settings
# [7] = Cytotoxicity against human SF268 cells after 48 hrs by SRB assay; type: functional; details: SF-268, 48 h, pooled result: one value given for 6 cell lines, strains, targets or settings
# [8] = Cytotoxicity against human LOXIMVI cells after 48 hrs by SRB assay; type: functional; details: LOX IMVI, pooled result: one value given for 9 cell lines, strains, targets or settings
# 786-0 [9] = assay: Cytotoxicity against human 786-0 cells after 48 hrs by SRB assay; type: functional; details: 786-0, 48 h, pooled result: one value given for 8 cell lines, strains, targets or settings
# [10] = Cytotoxicity against human PC3 cells after 48 hrs by SRB assay; type: functional; details: PC-3, 48 h; for GI50 / TGI: pooled result: one value given for 2 cell lines, strains, targets or settings
# [11] = Cytotoxicity against human DU145 cells after 48 hrs by SRB assay; type: functional; details: DU-145, 48 h, read-out: LC50 (the source's name)
# Dihydrofolate reductase = biological target: T1, Dihydrofolate reductase (Homo sapiens, UniProt P00374); assay: Inhibition of human recombinant DHFR expressed in Escherichia coli by spectrophotometric analysis
# T1 sequence (P00374 whole entry): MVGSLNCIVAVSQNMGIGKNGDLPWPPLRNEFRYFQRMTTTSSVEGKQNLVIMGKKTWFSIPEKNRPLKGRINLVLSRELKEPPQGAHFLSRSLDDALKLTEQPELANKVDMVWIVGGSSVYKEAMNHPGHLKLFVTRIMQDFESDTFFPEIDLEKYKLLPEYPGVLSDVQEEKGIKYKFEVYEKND
# Calf thymus DNA [12] = assay: Binding affinity to calf thymus DNA by UV-vis spectrometric analysis; type: nucleic-acid assay; details: Bos taurus
# Calf thymus DNA [13] = assay: Binding affinity to calf thymus DNA by fluorescence spectrophotometric analysis; type: nucleic-acid assay; details: Bos taurus
# [14] = Cytotoxicity against human MOLT4 cells at 10 uM after 48 hrs by SRB assay; type: functional; details: MOLT-4, 48 h, read-out: GI
# SR = assay: Cytotoxicity against human SR cells at 10 uM after 48 hrs by SRB assay; type: functional
# [15] = Cytotoxicity against human HOP62 cells at 10 uM after 48 hrs by SRB assay; type: functional; details: HOP-62, 48 h, read-out: GI
# NCI-H322M = assay: Cytotoxicity against human NCI-H322M cells at 10 uM after 48 hrs by SRB assay; type: functional; details: read-out: GI
# [16] = Cytotoxicity against human COLO205 cells at 10 uM after 48 hrs by SRB assay; type: functional; details: COLO 205, 48 h, read-out: GI
# [17] = Cytotoxicity against human HCT116 cells at 10 uM after 48 hrs by SRB assay; type: functional; details: HCT-116, 48 h, read-out: GI
# HT-29 = assay: Cytotoxicity against human HT-29 cells at 10 uM after 48 hrs by SRB assay; type: functional; details: HT-29, 48 h, read-out: GI
# [18] = Cytotoxicity against human SW620 cells at 10 uM after 48 hrs by SRB assay; type: functional; details: SW-620, 48 h, read-out: GI
# [19] = Cytotoxicity against human SF268 cells at 10 uM after 48 hrs by SRB assay; type: functional; details: SF-268, 48 h, read-out: GI
# [20] = Cytotoxicity against human SF539 cells at 10 uM after 48 hrs by SRB assay; type: functional; details: SF-539, 48 h, read-out: GI
# [21] = Cytotoxicity against human SNB19 cells at 10 uM after 48 hrs by SRB assay; type: functional; details: SNB-19, 48 h, read-out: GI
# U-251 = assay: Cytotoxicity against human U251 cells at 10 uM after 48 hrs by SRB assay; type: functional; details: U-251, 48 h, read-out: GI
# [22] = Cytotoxicity against human LOXIMVI cells at 10 uM after 48 hrs by SRB assay; type: functional; details: LOX IMVI, read-out: GI
# M14 = assay: Cytotoxicity against human M14 cells at 10 uM after 48 hrs by SRB assay; type: functional; details: M14, 48 h, read-out: GI
# MDA-MB-435 = assay: Cytotoxicity against human MDA-MB-435 cells at 10 uM after 48 hrs by SRB assay; type: functional; details: MDA-MB-435, 48 h, read-out: GI
# SK-MEL-28 = assay: Cytotoxicity against human SK-MEL-28 cells at 10 uM after 48 hrs by SRB assay; type: functional; details: SK-MEL-28, 48 h, read-out: GI
# [23] = Cytotoxicity against human OVCAR5 cells at 10 uM after 48 hrs by SRB assay; type: functional; details: OVCAR-5, 48 h, read-out: GI
# [24] = Cytotoxicity against human OVCAR8 cells at 10 uM after 48 hrs by SRB assay; type: functional; details: OVCAR-8, 48 h, read-out: GI
# [25] = Cytotoxicity against human SKOV3 cells at 10 uM after 48 hrs by SRB assay; type: functional; details: SK-OV-3, 48 h, read-out: GI
# 786-0 [26] = assay: Cytotoxicity against human 786-0 cells at 10 uM after 48 hrs by SRB assay; type: functional; details: 786-0, 48 h, read-out: GI
# A498 = assay: Cytotoxicity against human A498 cells at 10 uM after 48 hrs by SRB assay; type: functional; details: A498, 48 h, read-out: GI
# ACHN = assay: Cytotoxicity against human ACHN cells at 10 uM after 48 hrs by SRB assay; type: functional; details: read-out: GI
compound,measurement,setting,value
Cc1nc2cc(Nc3nc(Nc4ccc(F)cc4)nc(-c4ccc(Cl)cc4)n3)ccc2n1Cc1ccccc1,inhibition of growth at 10 µM,[1],9.6%
same,inhibition of growth at 10 µM,[2],31.5%
same,inhibition of growth at 10 µM,SN12C,22.9%
same,inhibition of growth at 10 µM,[3],55.5%
same,inhibition of growth at 10 µM,[4],24.6%
same,inhibition of growth at 10 µM,T47D,69.3%
same,inhibition of growth at 10 µM,MDA-MB-468,25.7%
same,LC50,K562,> 100 µM
same,CC50,[5],> 100 µM
same,GI50,A549,8.37 µM
same,LC50,A549,83.8 µM
same,TGI,A549,38.6 µM
same,GI50,[6],4.97 µM
same,LC50,[6],> 100 µM
same,TGI,[6],59.8 µM
same,GI50,[7],8.44 µM
same,LC50 (concentration killing 50% of cells),[7],61.4 µM
same,TGI,[7],48.6 µM
same,GI50,[8],6.36 µM
same,LC50,[8],80.6 µM
same,TGI,[8],31.7 µM
same,GI50,786-0 [9],11.5 µM
same,LC50 (concentration killing 50% of cells),786-0 [9],> 100 µM
same,TGI,786-0 [9],45.4 µM
same,LC50,[10],> 100 µM
same,GI50,[10],13.5 µM
same,TGI,[10],> 100 µM
same,CC50,[11],> 100 µM
same,IC50,Dihydrofolate reductase,42.4 µM
same,Ka,Calf thymus DNA [12],3.39 ×10⁴ /M
same,Ka,Calf thymus DNA [13],1.97 ×10⁴ /M
same,inhibition of growth at 10 µM,[14],99.2%
same,growth inhibition (GI),SR,Active
same,inhibition of growth at 10 µM,[15],19.4%
same,inhibition of growth at 10 µM,NCI-H322M,5.98%
same,inhibition of growth at 10 µM,[16],38.2%
same,inhibition of growth at 10 µM,[17],49.7%
same,inhibition of growth at 10 µM,HT-29,44.2%
same,inhibition of growth at 10 µM,[18],31.9%
same,inhibition of growth at 10 µM,[19],45.1%
same,inhibition of growth at 10 µM,[20],7.42%
same,inhibition of growth at 10 µM,[21],16.6%
same,inhibition of growth at 10 µM,U-251,30.3%
same,inhibition of growth at 10 µM,[22],23.4%
same,inhibition of growth at 10 µM,M14,41.7%
same,inhibition of growth at 10 µM,MDA-MB-435,33.8%
same,inhibition of growth at 10 µM,SK-MEL-28,7.37%
same,inhibition of growth at 10 µM,[23],7.71%
same,inhibition of growth at 10 µM,[24],37.2%
same,inhibition of growth at 10 µM,[25],7.08%
same,inhibition of growth at 10 µM,786-0 [26],8.96%
same,inhibition of growth at 10 µM,A498,29.7%
same,inhibition of growth at 10 µM,ACHN,28.4%
COc1ccc(-c2nc(Nc3ccc(F)cc3)nc(Nc3ccc4c(c3)nc(C)n4Cc3ccccc3)n2)cc1,inhibition of growth at 10 µM,[1],16.8%
same,inhibition of growth at 10 µM,[2],64.3%
same,inhibition of growth at 10 µM,SN12C,51.6%
same,inhibition of growth at 10 µM,[3],70.7%
same,inhibition of growth at 10 µM,[4],45.5%
same,inhibition of growth at 10 µM,T47D,88.5%
same,inhibition of growth at 10 µM,MDA-MB-468,71.6%
same,LC50,K562,> 100 µM
same,CC50,[5],> 100 µM
same,GI50,A549,5.14 µM
same,LC50,A549,> 100 µM
same,TGI,A549,20.9 µM
same,GI50,[6],3.52 µM
same,LC50,[6],18.2 µM
same,TGI,[6],14.4 µM
same,GI50,[7],4.98 µM
same,LC50 (concentration killing 50% of cells),[7],> 100 µM
same,TGI,[7],> 100 µM
same,GI50,[8],4.43 µM
same,LC50,[8],> 100 µM
same,TGI,[8],31.2 µM
same,GI50,786-0 [9],3.4 µM
same,LC50 (concentration killing 50% of cells),786-0 [9],> 100 µM
same,TGI,786-0 [9],27.7 µM
same,LC50,[10],> 100 µM
same,GI50,[10],5.35 µM
same,TGI,[10],> 100 µM
same,CC50,[11],> 100 µM
same,IC50,Dihydrofolate reductase,0.32 µM
same,Ka,Calf thymus DNA [12],2.96 ×10⁴ /M
same,Ka,Calf thymus DNA [13],1.5 ×10⁴ /M
same,growth inhibition (GI),SR,Active
same,inhibition of growth at 10 µM,[15],46.7%
same,inhibition of growth at 10 µM,NCI-H322M,17.6%
same,inhibition of growth at 10 µM,[16],71.8%
same,inhibition of growth at 10 µM,[17],76.6%
same,inhibition of growth at 10 µM,HT-29,91.1%
same,inhibition of growth at 10 µM,[18],54.3%
same,inhibition of growth at 10 µM,[19],53.1%
same,inhibition of growth at 10 µM,[20],32.2%
same,inhibition of growth at 10 µM,[21],39.3%
same,inhibition of growth at 10 µM,U-251,60.8%
same,inhibition of growth at 10 µM,[22],61.1%
same,inhibition of growth at 10 µM,M14,61.1%
same,inhibition of growth at 10 µM,MDA-MB-435,65.9%
same,inhibition of growth at 10 µM,SK-MEL-28,43.5%
same,inhibition of growth at 10 µM,[23],11.9%
same,inhibition of growth at 10 µM,[24],82.1%
same,inhibition of growth at 10 µM,[25],23.2%
same,inhibition of growth at 10 µM,786-0 [26],53.3%
same,inhibition of growth at 10 µM,A498,27.3%
same,inhibition of growth at 10 µM,ACHN,62.9%
